Active and inactive are the calls of the source. No cut-off for these calls is given here.

Results on 119 compounds are retold here after ChEMBL document CHEMBL5344431 (J Med Chem, 2024).

The target in the first assay is T1, Histone deacetylase 8 (Homo sapiens) (UniProt Q9BY41).
T1 sequence (whole entry): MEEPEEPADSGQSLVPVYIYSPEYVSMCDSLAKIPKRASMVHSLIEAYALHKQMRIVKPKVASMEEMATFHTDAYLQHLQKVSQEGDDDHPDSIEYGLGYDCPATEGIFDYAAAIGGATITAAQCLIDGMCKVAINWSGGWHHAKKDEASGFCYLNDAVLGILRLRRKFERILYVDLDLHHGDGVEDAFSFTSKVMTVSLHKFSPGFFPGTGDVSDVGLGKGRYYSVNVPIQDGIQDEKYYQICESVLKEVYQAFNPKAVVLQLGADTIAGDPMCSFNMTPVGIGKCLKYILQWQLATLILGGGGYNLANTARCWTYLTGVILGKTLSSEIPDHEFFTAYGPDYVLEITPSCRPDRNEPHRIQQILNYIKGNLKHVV
Nature of the assay: Inhibition of HDAC8 in human OCI-AML3 cells assessed as increase in SMC3 acetylation at 20 to 40 uM incubated for 72 hrs by Western blotting analysis. Type of assay: cell-based. Conditions: OCI-AML-3, dose 20-40 µM.
As to `C#Cc1ccc[n+](C)c1`, the inhibition entry is “Active”.

The target of the next assay is T1, Histone deacetylase 8 (Homo sapiens). In words: Inhibition of HDAC8 (unknown origin) assessed as Kinact using Boc-Lys(TFA)-AMC as substrate by fluorescence based method.
Settings: not given
As for `C#Cc1ccc[n+](C)c1`, the K was 0.003 s⁻¹.

Regarding `C#Cc1c[n+](C)ccc1NC(=O)CC(=O)N1Cc2ccccc2C1`, the K was determined as 0.005 s⁻¹.

The target is the same in a further assay. Nature of the assay: Inhibition of HDAC8 (unknown origin) at 0.0001 to 10000 uM using Boc-Lys(TFA)-AMC as substrate preincubated for 1 hr followed by substrate addition and measured after 15 mins by fluorescence based method. Conditions: dose 0.0001-10000 µM, time 75.0 min.
As for `C#Cc1c[n+](C)ccc1NC(=O)N1Cc2ccccc2C1`, the inhibition entry was “inactive”. The same measure, in the same setting: the value for `C#Cc1c[n+](C)ccc1NC(=O)CCC(=O)N1Cc2ccccc2C1` was “inactive”.

A further assay addresses T2, Histone deacetylase 8 (Homo sapiens, UniProt Q9BY41).
T2 sequence (Q9BY41 whole entry): T1 sequence (whole entry)
Nature of the assay: Inhibition of HDAC8 (unknown origin) using Boc-Lys(TFA)-AMC as substrate preincubated for 1 hr followed by substrate addition and measured after 15 mins by fluorescence based method.
Settings: not given
The term IC50 denotes the midpoint of a concentration-inhibition curve. In turn, `C#Cc1ccn[nH]1` gave an IC50 greater than 50 µM. Same read-out and setting: the value for `N#Cc1ccncn1` was greater than 50 µM; that for `C#Cc1nccc[n+]1C` was 0.74 µM; that for `Cn1cc[n+](C)c1I` was 1.8 µM. On the same count and under the same terms, the value for `C#Cc1cc[n+](C)n1C` was greater than 50 µM; that for `N#Cc1cccnc1` was greater than 50 µM. Still for that read-out and setting: the value for `Clc1ccncn1` was greater than 50 µM. For the compound `C#Cc1cncnc1`, the IC50 was greater than 50 µM. On the same count and under the same terms, the value for `C#Cc1c[n+](C)ccn1` was 0.42 µM. Still for that read-out and setting: the value for `N#Cc1cncnc1` was greater than 50 µM; that for `Cn1cc[n+](C)c1Cl` was 0.97 µM; that for `C[n+]1ccnc(Cl)c1` was 2.3 µM. The same measure, in the same setting: the value for `C[n+]1ccc(Br)cc1` was 3.1 µM. The compound `N#Cc1nccs1` came in with an IC50 greater than 50 µM. On the same count and under the same terms, the value for `C=Cc1ccccn1` was greater than 50 µM. `Clc1ncccn1` came in with an IC50 greater than 50 µM.

Compound `C=Cc1cccnc1` returned an IC50 greater than 50 µM. Still for that read-out and setting: the value for `Ic1ncccn1` was 2.24 µM; that for `N#Cc1c[nH]cn1` was greater than 50 µM.

The compound `C[n+]1ccccc1Cl` yielded an IC50 greater than 50 µM.

For the compound `C[n+]1ccsc1C#N`, the IC50 is greater than 50 µM. `Cn1cc(Cl)c[n+]1C` showed an IC50 of 14 µM. Regarding `Clc1cn[nH]c1`, the IC50 is greater than 50 µM. The same measure, in the same setting: the value for `Brc1cnccn1` was greater than 50 µM; that for `C#Cc1cnccn1` was greater than 50 µM. On the same count and under the same terms, the value for `C=Cc1cc[n+](C)n1C` was greater than 50 µM; that for `Cn1cc(I)c[n+]1C` was 9 µM. The same measure, in the same setting: the value for `C[n+]1cncc(Cl)c1` was 4.3 µM. `Cn1cc[n+](C)c1C#N` gave an IC50 of 22 µM.

`Brc1ccncc1` returned an IC50 greater than 50 µM. Same read-out and setting: the value for `C[n+]1ccsc1Br` was 1.2 µM; that for `Clc1ccccn1` [2-CHLOROPYRIDINE] was greater than 50 µM; that for `Brc1ccn[nH]1` was greater than 50 µM. Compound `Brc1ncc[nH]1` gave an IC50 greater than 50 µM. Same read-out and setting: the value for `C=Cc1c[n+](C)ccn1` was 0.42 µM; that for `Cn1cc(Cl)[n+](C)c1` was 16 µM; that for `Ic1ncco1` was greater than 50 µM. The compound `C[n+]1ccc(I)cc1` returned an IC50 of 0.44 µM. On the same count and under the same terms, the value for `C#Cc1ncccn1` was greater than 50 µM. On the same count and under the same terms, the value for `C#Cc1cc[n+](C)cc1` was 0.079 µM; that for `Brc1nccs1` was greater than 50 µM; that for `C[n+]1cccc(C#N)c1` was 12 µM.

`Ic1ccn[nH]1` displayed an IC50 greater than 50 µM.

Regarding `Cn1cc(C#N)c[n+]1C`, the IC50 is greater than 50 µM. The same measure, in the same setting: the value for `C#Cc1cn(C)[n+](C)c1` was 10 µM. As for `Ic1ccncc1`, the IC50 stood at 4.61 µM. On the same count and under the same terms, the value for `C[n+]1cccnc1Br` was 0.22 µM; that for `C[n+]1ccnc(I)c1` was 27 µM; that for `C[n+]1ccccc1I` was 0.44 µM. Still for that read-out and setting: the value for `Clc1ncc[nH]1` was greater than 50 µM; that for `Cc1noc(C)c1I` was greater than 50 µM; that for `Cn1c(I)cc[n+]1C` was 19 µM. Same read-out and setting: the value for `Brc1cccnc1` was greater than 50 µM; that for `Cn1cc(Br)c[n+]1C` was 27 µM. `C=Cc1cc[n+](C)cc1` gave an IC50 of 3.4 µM. On the same count and under the same terms, the value for `Clc1cccnc1` was greater than 50 µM; that for `Ic1ncc[nH]1` was greater than 50 µM; that for `Cn1c(Br)cc[n+]1C` was 23 µM.

`Ic1c[nH]cn1` gave an IC50 greater than 50 µM. On the same count and under the same terms, the value for `C[n+]1cccc(Cl)c1` was 14 µM; that for `Brc1cncnc1` was greater than 50 µM. Same read-out and setting: the value for `C#Cc1ccccn1` was greater than 50 µM. The same measure, in the same setting: the value for `Clc1cncnc1` was greater than 50 µM. The compound `C[n+]1ccnc(C#N)c1` came in with an IC50 greater than 50 µM. The same measure, in the same setting: the value for `C[n+]1csc(Br)c1` was 0.13 µM; that for `N#Cc1cn[nH]c1` was greater than 50 µM. On the same count and under the same terms, the value for `C[n+]1cncc(I)c1` was 0.12 µM. The same measure, in the same setting: the value for `C#Cc1cccnc1` was greater than 50 µM; that for `C[n+]1cnccc1C#N` was 3.6 µM; that for `C#Cc1ccc[n+](C)c1` was 8.2 µM.

The compound `Cc1o[n+](C)c(C)c1I` showed an IC50 of 2.9 µM. Still for that read-out and setting: the value for `C[n+]1ccc(C#N)cc1` was 14 µM. Turning to `C=Cc1cnccn1`, the IC50 was greater than 50 µM. As for `C[n+]1cncc(C#N)c1`, the IC50 is greater than 50 µM. On the same count and under the same terms, the value for `C=Cc1ccn[nH]1` was greater than 50 µM; that for `C#Cc1cccc[n+]1C` was 2.1 µM. Take `N#Cc1ccncc1` [ISONICOTINONITRILE]: the IC50 is greater than 50 µM. In the case of `Cn1cc(C#N)[n+](C)c1`, the IC50 amounted to 24 µM. Regarding `C[n+]1ccc(Cl)cc1`, it took 6.5 µM to reach half-maximal inhibition (IC50). Same read-out and setting: the value for `Cn1cc(I)[n+](C)c1` was 31 µM. Still for that read-out and setting: the value for `C[n+]1cnccc1Cl` was greater than 50 µM; that for `C[n+]1ccccc1C#N` was 5.3 µM; that for `C[n+]1cccnc1Cl` was 0.43 µM.

Take `Brc1ncccn1`: the IC50 was greater than 50 µM. On the same count and under the same terms, the value for `Ic1cncnc1` was greater than 50 µM; that for `C=Cc1ccncc1` was greater than 50 µM. The same measure, in the same setting: the value for `Clc1c[nH]cn1` was greater than 50 µM; that for `C#Cc1cnc[n+](C)c1` was 21 µM; that for `C#Cc1cn[nH]c1` was greater than 50 µM. Still for that read-out and setting: the value for `C[n+]1cccc(I)c1` was 4.7 µM; that for `C[n+]1cncc(Br)c1` was 0.3 µM; that for `Ic1cn[nH]c1` was greater than 50 µM. The compound `C=Cc1cncnc1` displayed an IC50 greater than 50 µM. Still for that read-out and setting: the value for `N#Cc1ccccn1` was greater than 50 µM; that for `Cn1cc(Br)[n+](C)c1` was 20 µM; that for `Cn1cc[n+](C)c1Br` was 0.33 µM. The same measure, in the same setting: the value for `C[n+]1ccccc1Br` was 1.3 µM.

`Ic1cnccn1` showed an IC50 greater than 50 µM.

For `C=Cc1cnc[n+](C)c1`, the concentration for half-maximal inhibition (IC50) is 5 µM. Consider `C[n+]1ccoc1I`, for which inhibition was half-maximal at 1.2 µM (IC50). The compound `N#Cc1ncc[nH]1` registered an IC50 greater than 50 µM.

`Brc1cncs1`: half-maximal inhibition (IC50) was put at 5.6 µM. Compound `Brc1ccccn1` had an IC50 greater than 50 µM.

`Brc1cn[nH]c1` had an IC50 greater than 50 µM. In turn, `Brc1c[nH]cn1` had an IC50 greater than 50 µM. Same read-out and setting: the value for `C#Cc1ccncc1` was 12.6 µM. Still for that read-out and setting: the value for `C=Cc1ccc[n+](C)c1` was 5 µM; that for `N#Cc1cnccn1` was greater than 50 µM. `Clc1ccncc1`: the IC50 is greater than 50 µM. Same read-out and setting: the value for `Clc1cnccn1` was greater than 50 µM. Same read-out and setting: the value for `C[n+]1cccnc1I` was 0.152 µM; that for `C[n+]1ccnc(Br)c1` was 27 µM. Same read-out and setting: the value for `C[n+]1cccc(Br)c1` was 8 µM.

The target of another assay is T1, Histone deacetylase 8 (Homo sapiens). In words: Inhibition of HDAC8 in human OCI-AML3 cells assessed as increase in SMC3 acetylation at 10 uM incubated for 72 hrs by Western blotting analysis. Type of assay: cell-based. Conditions: OCI-AML-3.
On to `C#Cc1c[n+](C)ccc1NC(=O)CC(=O)N1Cc2ccccc2C1`, for which the inhibition result is “Active”.

For the next assay the target is unchanged. In words: Inhibition of HDAC8 (unknown origin) upto 100 uM using Boc-Lys(TFA)-AMC as substrate preincubated for 1 hr followed by substrate addition and measured after 15 mins by fluorescence based method. The note with it: time 75.0 min.
`C#Cc1cnccc1NC(=O)N1Cc2ccccc2C1`: the inhibition entry is “inactive”. Regarding `C#Cc1c[n+](C)ccc1NC(=O)CCC(=O)N1Cc2ccccc2C1`, the inhibition entry was “inactive”.

For the compound `C#Cc1cnccc1NC(=O)CCC(=O)N1Cc2ccccc2C1`, the inhibition entry is “inactive”.

Regarding `C#Cc1cnccc1NC(=O)CC(=O)N1Cc2ccccc2C1`, the inhibition result is “inactive”.
